# Reference: the SangsterLogP compilation
# Tests used:
# [1] = method code SF, from DOI: 10.1002/ps.2780140605
logP [1],logP,SMILES
2.42,,C#CCC(O)(c1cccnc1)c1ccc(Cl)c(Cl)c1 (stereo not drawn)
2.14,,C#CCC(O)(c1cccnc1)c1ccc2ccccc2c1 (stereo not drawn)
2.29,,C#CCC(O)(c1cccnc1)c1ccc(Cl)cc1Cl (stereo not drawn)
2.16,,C#CCC(O)(c1ccc(C(C)C)cc1)c1cccnc1 (stereo not drawn)
1.78,,C#CCC(O)(c1ccc(F)cc1)c1cccnc1 (stereo not drawn)

# Further lines, the molecule ahead of its results:
SMILES,logP [1],logP
C#CCC(O)(CC#C)c1cccnc1,1.29,
C#CCC(O)(c1cccnc1)C1CCCCC1 (stereo not drawn),2.09,
C#CCC(O)c1cccnc1 (stereo not drawn),,1.21
